Data reported in ChEMBL document CHEMBL1773011, “New and more efficient multivalent glyco-ligands for asialoglycoprotein receptor of mammalian hepatocytes” (Bioorg Med Chem, 2011).

Assay: Displacement of Eu-DTPA labeled ASOR from rat primary hepatocytes Asialoglycoprotein receptor after 20 mins by fluorometric analysis
Type: cell-based
Details: hepatocyte
With `NCCCCC(C(=O)NCCCCCCOC1O[C@H](CO)[C@@H](O[C@@H]2O[C@H](CO)[C@H](O)[C@H](O)[C@H]2O)[C@H](O)[C@H]1O)N(CC(=O)NCCCCCCOC1O[C@H](CO)[C@@H](O[C@@H]2O[C@H](CO)[C@H](O)[C@H](O)[C@H]2O)[C@H](O)[C@H]1O)CC(=O)NCCCCCCOC1O[C@H](CO)[C@@H](O[C@@H]2O[C@H](CO)[C@H](O)[C@H](O)[C@H]2O)[C@H](O)[C@H]1O` (some centres undefined) the IC50 was > 1000 nM. With `CC(=O)NC1C(OCCCCCCNC(=O)CNC(=O)C[C@H](NC(=O)[C@H](CC(=O)NCC(=O)NCCCCCCOC2O[C@@H](CO)[C@@H](O)[C@@H](O)C2NC(C)=O)NC(=O)[C@@H](N)Cc2ccc(O)cc2)C(=O)NCC(=O)NCCCCCCOC2O[C@@H](CO)[C@@H](O)[C@@H](O)C2NC(C)=O)O[C@@H](CO)[C@@H](O)[C@H]1O` (single isomer, unassigned) the IC50 was 20 nM. `CC(=O)N[C@H]1C(OCCCCCCNC(=O)CNC(=O)CN(CC(=O)NCC(=O)NCCCCCCOC2O[C@H](CO)[C@H](O)[C@H](O)[C@H]2NC(C)=O)C(CCCCNC(=O)OCc2ccccc2)C(=O)NCC(=O)NCCCCCCOC2O[C@H](CO)[C@H](O)[C@H](O)[C@H]2NC(C)=O)O[C@H](CO)[C@H](O)[C@@H]1O` (stereo in doubt) gave an IC50 of 1 nM. For `CC(=O)N[C@@H]1C(OCCCCCCNC(=O)C(CCCCNC(=O)OCc2ccccc2)N(CC(=O)NCCCCCCOC2O[C@H](CO)[C@H](O)[C@H](O)[C@H]2NC(C)=O)CC(=O)NCCCCCCOC2O[C@H](CO)[C@H](O)[C@H](O)[C@H]2NC(C)=O)O[C@@H](CO)[C@@H](O)[C@H]1O` (stereo in doubt), the IC50 was 12 nM.
